For one experiment, the system named is mouse Th17 polarization. The experiment can be described thus: Mouse Th17 polarization assay (IL-17a producing cells). It is filed as cell-based. The note with it: for pIC50: naive mouse CD4 T cells, TGFβ and IL6, compounds added Day 1, analyzed Day 4, IL-17a producing cells, read-out: Th 17 IC50. How it is done:
Effects of compound derivatives at various concentrations on mouse Th17 polarization. Percentage of DMSO treated IL-17a producing cells was set at 100. Naive mouse CD4 T cells (CD25^−, CD62L^+, and CD44^int-high) were sorted and cultured with CD3/CD28 stimulatory antibodies in the presence of TGFβ (0.1 ng/ml) and IL6 (20 ng/ml). Compounds were added on Day 1 and cells were analyzed on Day 4. For intracellular cytokine staining, cells were incubated for 5 h with phorbol ester (50 ng/ml; Sigma), ionomycin (500 ng/ml; Sigma) and GolgiStop (BD). When needed, surfaces were stained by incubation for 15 min on ice with PECy7-conjugated CD4 (BD Biosciences). The Cytofix/Cytoperm buffer set (BD) was used for intracellular staining. Cells were fixed and made permeable for 30 min on ice and were stained for 30 min on ice in permeabilization buffer with Alexa647-conjugated anti-IL17 (eBioscience) and PE-conjugated anti-IFNg (eBioscience). An LSR II (BD Biosciences) and FlowJo software (Tree Star) were used for flow cytometry. RORg IC50 value acquired from the S2 cell reporter assay is listed for comparison.
Naive CD4 T cells (CD25^−, CD62L^+, and CD44^int-high) were sorted and cultured with CD3/CD28 stimulatory antibodies in the presence of TGFβ (0.1 ng/ml) and IL6 (20 ng/ml). Compounds were added on Day 1 and cells were analyzed on Day 4. For intracellular cytokine staining, cells were incubated for 5 h with phorbol ester (50 ng/ml; Sigma), ionomycin (500 ng/ml; Sigma) and GolgiStop (BD). When needed, surfaces were stained by incubation for 15 min on ice with PECy7-conjugated CD4 (BD Biosciences). The Cytofix/Cytoperm buffer set (BD) or FoxP3 staining kit (eBioscience) were used for intracellular staining. Cells were fixed and made permeable for 30 min on ice and were stained for 30 min on ice in permeabilization buffer with Alexa647-conjugated anti-IL17 (eBioscience), PE-conjugated anti-IFNg (eBioscience), and/or PE-conjugated anti-FoxP3 (eBioscience). An LSR II (BD Biosciences) and FlowJo software (Tree Star) were used for flow cytometry.

The next experiment deals with RORγt (Mus musculus, UniProt P51450, T352K). The experiment can be described thus: RORγt S2 cell Gal4-luciferase reporter assay. The note with it: for Emax: read-out: Efficacy (%). In general terms: In a reporter assay the amount or activity of a reporter protein is the signal.
[1] abbreviates: IC50(μM), Drosophila S2 cells, Gal4-RORγt luciferase reporter, 20 hr.
The mark [2] stands for this setting: S2 cell RORg IC50 μM, S2 cell reporter assay, listed for comparison.

As usually defined, the pIC50 is −log10 of the IC50, conventionally taken in molar units. For orientation: IC50 means the concentration at which inhibition is half-maximal. A higher IC50 goes with weaker potency in that assay.

pIC50: −log10 of the molar value. Some results are limits rather than exact numbers.

Chain of RORγt (P51450 with tags, fused parts or gaps T352K): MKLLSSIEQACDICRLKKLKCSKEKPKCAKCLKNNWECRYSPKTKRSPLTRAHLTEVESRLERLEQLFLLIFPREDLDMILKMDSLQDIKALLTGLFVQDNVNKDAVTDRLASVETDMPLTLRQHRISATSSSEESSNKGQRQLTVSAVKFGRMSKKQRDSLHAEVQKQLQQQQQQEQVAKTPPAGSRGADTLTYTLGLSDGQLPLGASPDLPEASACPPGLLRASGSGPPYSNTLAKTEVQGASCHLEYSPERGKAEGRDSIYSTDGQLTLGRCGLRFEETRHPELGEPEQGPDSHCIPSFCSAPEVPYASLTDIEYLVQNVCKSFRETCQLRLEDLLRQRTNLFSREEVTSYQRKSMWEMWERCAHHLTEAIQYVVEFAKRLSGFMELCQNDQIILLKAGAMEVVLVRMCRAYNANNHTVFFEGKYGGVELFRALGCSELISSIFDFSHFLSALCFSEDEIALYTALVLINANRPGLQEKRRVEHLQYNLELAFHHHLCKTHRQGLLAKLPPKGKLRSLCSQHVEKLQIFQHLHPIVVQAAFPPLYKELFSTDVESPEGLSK
From the text for RORγt: Methods: The Drosophila S2 cell line was originally purchased from Invitrogen and was maintained in Schneider's medium supplemented with 10% heat-inactivated bovine fetal calf serum and antibiotics (Invitrogen). […] The resulting chimeric gene was subcloned into the copper inducible pMT/V5-His A vector (available from Invitrogen).
In order to generate stable cell lines, cells were co-transfected with pMT-G4DBD-RORγt, pMT-G4DBD-RORα, pMT-G4DBD-DHR3, or pMT-G4DBDVP16 and pHygro plasmids (Invitrogen) and screened for resistant colonies in the presence of hygromycin (0.3 mg/mL).
Methods: 600 G4DBD-RORγ/γt-luc reporter (#25) or G4DBD-VP16-luc reporter cells were distributed into each well of 1,536-well white bottom plates in 4 μl S2 cell culture volume containing hygromicin (300 μg/ml) and puromycin (2 μg/ml). […] After one-hour incubation, 1 μl of culture medium solution containing copper sulfate (to final 0.7 mM) and 10 μM RORγ/γt antagonists were added to each well. After 20-hour incubation at ambient temperature, 1.5 μl firefly luciferase detection mix was added and the luciferase activities were measured in 10 min. ViewLux luminometers were used for measuring luciferase signal.
Since their cognate DNA binding sites were not well characterized, the DNA binding domains (DBD) of RORγ/γt, RORα (mouse homolog for POPγ), and DHR3 (Drosophila orthologue for ROR family proteins) were replaced with the heterologous yeast GAL4 DBD. The transcriptionally active domain of general transcriptional activator VP16 was also fused with GAL4 DBD. The GAL4 fusion constructs were placed under the control of a copper inducible promoter, and stable S2 cell lines with genomic integration of these four reporter constructs were generated. The copper inducible promoter ensures tight regulation of GAL4-fusion protein expression and it allows small molecules to get into the cells prior to protein induction, thus increasing their effects on GAL4 reporters. The stable reporter cell lines also encode the firefly luciferase reporter, whose expression is regulated by five copies of the GAL4 binding site enhancer (UAS), along with the pol III-driven Renilla luciferase reporter.
A cell-based reporter assay was used to detect RORγt-mediated activity. This assay, called RORγt□ employed Drosophila Schneider cells that were stably transfected with two vectors: a gene expressing a fusion of the Gal4 DNA binding domain and RORγt transactivation domain under the control of the metallothionine promoter and a Photinus luciferase reporter regulated by the Gal4 binding site enhancer, UAS. […] Cells (600/well) were dispensed into white solid 1536-well plates (Greiner) using a solenoid-based dispenser. Following transfer of 23 nL compound or DMSO vehicle by a pin tool, the plates were incubated 1 hr at ambient temperature, and 1 uL/well copper sulfate (700 uM final concentration) was added. The plates were centrifuged 15 s at 1000 RPM and incubated 20 hr at ambient temperature. After addition of 1.5 uL Photinus luciferase detection reagent, the plates were incubated 10 min at ambient temperature and then read by a ViewLux (Perkin Elmer) to detect luminescence. […] Efficacy is expressed as % of the maximal response of control inhibitor (Digoxin), set at 100%.

Turning to `COc1cccc(O)c1C(CC(=O)N1CCCC(C)C1)c1ccc2c(c1)OCO2` (stereo not shown) [Compound 121], the pIC50 in the experiment with mouse Th17 polarization was under 4.70.

With `COc1cc(O)c(C(CC(=O)N2CCCC(C)C2)c2ccccc2C)c(OC)c1` (stereo not shown) [Compound 63], in the experiment on mouse Th17 polarization, the pIC50 was under 4.70. Also, the IC50 against RORγt (setting [1]) and against RORγt (setting [2]) was 1 to 10 µM throughout. In addition, the Emax at RORγt came to 93.5%.

As to `COc1ccc(C(CC(=O)N2CCCC(C)C2)c2c(O)cc(OC)cc2OC)c(OC)c1` (stereo not shown) [Compound 69], in the experiment on mouse Th17 polarization, the negative logarithm of the IC50 (pIC50) was under 4.70. Also, the values for the IC50 on RORγt (setting [1]) and at RORγt (setting [2]) were 11 to 50 µM and over 20 µM, respectively. For the same compound, the Emax at RORγt worked out at 45.6%.

Take `COc1cc(OC)c(C(CC(=O)N2CC(C)CC(C)C2)c2ccc3c(c2)OCO3)c(OC)c1` (stereo not shown) [Compound 134]: the pIC50 in the experiment with mouse Th17 polarization is over 6.00. In addition, the IC50 against RORγt (setting [1]) and at RORγt (setting [2]) was 1 to 10 µM throughout. For the same compound, the Emax at RORγt stood at 96.4%.

In the case of `COc1cc(OC)c(C(CC(=O)N2CCCC(C)C2)c2ccc3c(c2)OCO3)c(OC)c1` (stereo not shown) [Compound 120, 3-(Benzo[d][1,3]dioxol-5-yl)-1-(3-methylpiperidin-1-yl)-3-(2,4,6-trimethoxyphenyl)propan-1-one], the pIC50 with mouse Th17 polarization was 5.00 to 6.00.

On to `COc1cc(O)c(C(CC(=O)N2CC(C)CC(C)C2)c2ccc(N(C)C)cc2)c(OC)c1` (stereo not shown) [Compound 72], for which, in the experiment on mouse Th17 polarization, the negative logarithm of the IC50 (pIC50) is over 6.00. For the same compound, the IC50 against RORγt (setting [1]) and on RORγt (setting [2]) was 1 to 10 µM in each case. On RORγt, the Emax was determined as 96.8%.

Turning to `COc1cc(OC)c(C(CC(=O)N2CC(C)CC(C)C2)c2ccc3c(c2)OCO3)c(OCC(N)=O)c1` (stereo not shown) [Compound 137], in the experiment on mouse Th17 polarization, the pIC50 is under 4.70. Also, the IC50 at RORγt (setting [1]) was in the range of 11 to 50 µM; against RORγt (setting [2]), 11 to 20 µM. The Emax at RORγt worked out at 98.5%.

For `COc1cc(O)c(C(CC(=O)N2CC(C)CC(C)C2)c2ccc3c(c2)OCCO3)c(OC)c1` (stereo not shown) [Compound 76], in the experiment with mouse Th17 polarization, the pIC50 was over 6.00. The values for the concentration for half-maximal inhibition (IC50) against RORγt (setting [1]) and against RORγt (setting [2]) were under 1 µM and 1 to 10 µM, respectively. The Emax on RORγt amounted to 95.4%.

Regarding `COCOc1cc(OC)cc(OC)c1C(CC(=O)N1CC(C)CC(C)C1)c1ccc2c(c1)OCO2` (stereo not shown) [Compound 135], the pIC50 in the experiment on mouse Th17 polarization is 5.00 to 6.00. Besides, the IC50 on RORγt (setting [1]) and against RORγt (setting [2]) was 1 to 10 µM throughout. Also, the Emax on RORγt stood at 96.5%.

In the case of `COc1cc(O)c(C(CC(=O)N2CCCCC2)c2ccc3c(c2)OCO3)c(OC)c1` (stereo not shown) [NCGC00166488], the “mouse Th17 cell differentiation, as measured by IL17a production” value in the experiment on mouse Th17 polarization (20 μM, compared to DMSO treated cells, FACS (FIG. 3)) is on record as “suppress mouse Th17 cell differentiation”.

With `COc1cc(O)c(C(CC(=O)N2CC(C)CC(C)C2)c2ccc(C)cc2)c(OC)c1` (stereo not shown) [Compound 73], the pIC50 with mouse Th17 polarization is over 6.00.

In the case of `CC1CC(C)CN(C(=O)CC(c2ccc3c(c2)OCO3)c2c(O)ccc3ccccc23)C1` (stereo not shown) [Compound 138], in the experiment with mouse Th17 polarization, the pIC50 was 5.00 to 6.00.

Regarding `COc1cc(OC)c(C(CC(=O)N2CC(C)CC(C)C2)c2ccc3c(c2)OCO3)c(OCC#N)c1` (stereo not shown) [Compound 136], in the experiment with mouse Th17 polarization, the pIC50 was 5.00 to 6.00. For the same compound, the IC50 at RORγt (setting [1]) and at RORγt (setting [2]) was 1 to 10 µM throughout. In addition, the Emax on RORγt worked out at 90%.

For the compound `COc1cc(O)c(C(CC(=O)N2CCC(C)CC2)c2ccc3c(c2)OCO3)c(OC)c1` (stereo not shown) [Compound 1], the pIC50 in the experiment on mouse Th17 polarization is under 4.70.

For `COc1cc(O)c(C(CC(=O)N2CC(C)CC(C)C2)c2ccc(O)cc2)c(OC)c1` (stereo not shown) [Compound 75], the pIC50 in the experiment on mouse Th17 polarization was over 6.00. The IC50 against RORγt (setting [1]) and on RORγt (setting [2]) was 1 to 10 µM in each case. Moreover, the Emax at RORγt was determined as 93.8%.

On to `COc1cc(O)c(C(CC(=O)N2CC(C)CC(C)C2)c2ccc3c(c2)OCO3)c(OC)c1` (stereo not shown) [Compound 22], for which, in the experiment with mouse Th17 polarization, the pIC50 was over 6.00. In addition, the Emax on RORγt was determined as 97.7%.

Take `COc1cc(O)c(C(CC(=O)N2CCCC(C)C2)c2ccc(C)cc2)c(OC)c1` (stereo not shown) [Compound 57]: the pIC50 with mouse Th17 polarization is 5.00 to 6.00. The IC50 against RORγt (setting [1]) and against RORγt (setting [2]) was 1 to 10 µM in each case. In addition, the Emax at RORγt was determined as 97%.

On to `COc1cc(O)c([C@@H](CC(=O)N2CC(C)CC(C)C2)c2ccc3c(c2)OCO3)c(OC)c1` (single isomer, unassigned; (-)) [Compound 35], for which the pIC50 with mouse Th17 polarization is over 6.00. Further, the Emax on RORγt was 91%.

Regarding `COc1cc(O)c(C(CC(=O)N2CCCC(C)(C)C2)c2ccc3c(c2)OCO3)c(OC)c1` (stereo not shown) [Compound 8], in the experiment with mouse Th17 polarization, the pIC50 was 5.00 to 6.00.

For `COc1ccc(C(CC(=O)N2CC(C)CC(C)C2)c2c(O)cc(OC)cc2OC)cc1` (stereo not shown) [Compound 74], the pIC50 in the experiment with mouse Th17 polarization was over 6.00.

As to `COc1ccc(C(CC(=O)N2CCCC(C)C2)c2c(O)cc(OC)cc2OC)cc1` (stereo not shown) [Compound 60], in the experiment with mouse Th17 polarization, the pIC50 was 5.00 to 6.00. In addition, the IC50 on RORγt (setting [1]) and against RORγt (setting [2]) was 1 to 10 µM each time. For the same compound, on RORγt, the Emax was 91.7%.

In the case of `COc1cc(O)c(C(CC(=O)N2CCCC(C)C2)c2ccccc2)c(OC)c1` (stereo not shown) [Compound 61], the pIC50 in the experiment with mouse Th17 polarization is under 4.70. Moreover, the IC50 against RORγt (setting [1]) and on RORγt (setting [2]) was 1 to 10 µM each time. Moreover, the Emax on RORγt was found to be 95.4%.

For `COc1cc(O)c(C(CC(=O)N2CC(C)OC(C)C2)c2ccc3c(c2)OCO3)c(OC)c1` (stereo not shown) [Compound 41], the pIC50 with mouse Th17 polarization is over 6.00.

`COc1ccc(C(CC(=O)N2CCCC(C)C2)c2ccc3c(c2)OCO3)c(O)c1` (stereo not shown) [Compound 115]: the pIC50 with mouse Th17 polarization is under 4.70.

For the compound `COc1cc(O)c(C(CC(=O)N2CCCC(C(F)(F)F)C2)c2ccc3c(c2)OCO3)c(OC)c1` (stereo not shown) [Compound 43], the pIC50 with mouse Th17 polarization is 5.00 to 6.00.

At RORγt (setting [1]), `C#CCOc1cc(OC)cc(OC)c1C(CC(=O)N1CCCC(C)C1)c1ccc2c(c1)OCO2` (stereo not shown) [Compound 123] had an IC50 of 1 to 10 µM. The Emax at RORγt was 98%.

On to `COc1cc(O)c(C(CC(=O)N2CCCC(c3ccccc3)C2)c2ccc3c(c2)OCO3)c(OC)c1` (stereo not shown) [Compound 14], for which, at RORγt (setting [1]), the IC50 was 11 to 50 µM. The Emax at RORγt was 70.1%.

`COc1cc(O)c(C(CC(=O)N2CCCC(C#N)C2)c2ccc3c(c2)OCO3)c(OC)c1` (stereo not shown) [Compound 6]: the IC50 against RORγt (setting [1]) was in the range of 11 to 50 µM. Also, on RORγt, the Emax amounted to 66%.

For “1-(3,5-Dimethylpiperidin-1-yl)-3-(2-hydroxy-4,6-dimethoxyphenyl)-3-(3-(methylsulfonyl)phenyl)propan-1-one [Compound 83]”, the “Efficacy (%)” value on RORγt (% of the maximal response of control inhibitor (Digoxin), set at 100%) was −93.79%. Also, on RORγt (Drosophila S2 cells, Gal4-RORγt luciferase reporter, 20 hr), the pIC50 is 5.00 to 6.00.

`COc1cc(O)c(C(CC(=O)N2CC(C)CC(C)C2)c2ccc(CN3CCOCC3)cc2)c(OC)c1` (stereo not shown) [Compound 90] yielded an IC50 at RORγt (setting [1]) of 1 to 10 µM. Further, the Emax at RORγt is 99.1%.

`CCCN(C(=O)C(C)(C)C(c1ccccc1)c1c(OC)cc(OC)cc1OC)C1CCCC(C)C1` (stereo not shown) [Compound 155] gave an IC50 at RORγt (setting [1]) of over 50 µM.

`COc1cc(O)c(C(CC(=O)N2CCCC(CN3CCCCC3)C2)c2ccc3c(c2)OCO3)c(OC)c1` (stereo not shown) [Compound 15]: the IC50 on RORγt (setting [1]) was over 50 µM.

At RORγt (setting [1]), `COc1cc(O)c(C(CC(=O)N2CC(C)CC(C)C2)c2ccc(OCc3ccccc3)cc2)c(OC)c1` (stereo not shown) [Compound 92] yielded an IC50 of 1 to 10 µM. Further, the Emax at RORγt is 94.6%.

As to `O=C(CC(c1ccc2c(c1)OCO2)c1c(O)ccc2ccccc12)N1CCCCC1` (stereo not shown) [Compound 147], the IC50 against RORγt (setting [1]) is 11 to 50 µM. Moreover, on RORγt, the Emax was determined as 88.1%.

At RORγt (setting [1]), `COc1cccc(O)c1C(CC(=O)N1CC(C)CC(C)C1)c1ccc2c(c1)OCO2` (stereo not shown) [Compound 140, 3-(Benzo[d][1,3]dioxol-5-yl)-1-(3,5-dimethylpiperidin-1-yl)-3-(2-hydroxy-6-methoxyphenyl)propan-1-one] yielded an IC50 of under 1 µM. In addition, the Emax on RORγt came out at 96.5%.

In turn, `COc1cc(O)c(C(CC(=O)N2CCCC(C(=O)c3ccccc3)C2)c2ccc3c(c2)OCO3)c(OC)c1` (stereo not shown) [Compound 16] returned an IC50 against RORγt (setting [1]) of over 50 µM.

The values are drawn from US10561666B2, “Amido compounds as RORγt modulators and uses thereof” (New York University, priority 2010, dated 2020).
